Assay results reported in ChEMBL document CHEMBL3886401, “Disubstituted benzothienyl-pyrrolotriazines and uses thereof” (2015).

Experiments:
[1] = target: Fibroblast growth factor receptor 1 (Homo sapiens, UniProt P11362); experiment: High ATP Kinase Assay: For the assay, 50 nl of each stock solution of the test compound in DMSO was pipetted into a black, low-volume 384-well microtiter plate (Greiner Bio-One, Frickenhausen, Germany) 2 Î¼l of a solution of the above FGFR-1 fusion protein in aqueous assay buffer [8 mM MOPS pH 7.0, 10 mM magnesium acetate, 1.0 mM dithiothreitol, 0.05% (w/v) bovine serum albumin (BSA), 0.07% (v/v) …
[2] = target: Fibroblast growth factor receptor 3 (Homo sapiens, UniProt P22607); experiment: Kinase Assay: For the assay, 50 nl of each stock solution of the test compound in DMSO was pipetted into a black, low-volume 384-well microtiter plate (Greiner Bio-One, Frickenhausen, Germany) 2 ul of a solution of the above FGFR-3 fusion protein in aqueous assay buffer [8 mM MOPS pH 7.0, 10 mM magnesium acetate, 1.0 mM dithiothreitol, 0.05% (w/v) bovine serum albumin (BSA), 0.07% (v/v) Tween-20 …
Sequence of Fibroblast growth factor receptor 3 (P22607 whole entry, the tested form may be a part): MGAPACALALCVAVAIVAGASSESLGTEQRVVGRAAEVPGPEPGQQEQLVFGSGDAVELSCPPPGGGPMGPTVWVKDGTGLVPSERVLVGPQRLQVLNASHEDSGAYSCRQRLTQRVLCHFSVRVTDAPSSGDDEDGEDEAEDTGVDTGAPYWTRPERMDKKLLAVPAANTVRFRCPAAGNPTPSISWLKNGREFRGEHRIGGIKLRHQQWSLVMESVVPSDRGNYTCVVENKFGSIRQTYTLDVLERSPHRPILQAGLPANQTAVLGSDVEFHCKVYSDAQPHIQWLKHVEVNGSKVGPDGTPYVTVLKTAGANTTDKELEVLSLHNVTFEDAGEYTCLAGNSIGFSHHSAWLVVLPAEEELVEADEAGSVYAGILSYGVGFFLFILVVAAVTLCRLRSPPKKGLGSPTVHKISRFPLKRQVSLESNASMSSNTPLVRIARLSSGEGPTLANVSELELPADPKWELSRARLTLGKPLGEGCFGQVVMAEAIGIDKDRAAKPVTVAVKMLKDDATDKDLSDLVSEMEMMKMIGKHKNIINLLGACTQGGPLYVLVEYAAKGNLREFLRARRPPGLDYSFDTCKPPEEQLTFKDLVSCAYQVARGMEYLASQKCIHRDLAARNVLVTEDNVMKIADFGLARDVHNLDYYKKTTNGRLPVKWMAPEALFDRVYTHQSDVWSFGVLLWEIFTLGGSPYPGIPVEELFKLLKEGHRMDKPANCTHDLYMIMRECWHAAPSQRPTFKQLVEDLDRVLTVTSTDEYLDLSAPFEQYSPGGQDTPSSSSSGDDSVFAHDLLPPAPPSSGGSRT

Sequence of Fibroblast growth factor receptor 1 (P11362 whole entry, the tested form may be a part): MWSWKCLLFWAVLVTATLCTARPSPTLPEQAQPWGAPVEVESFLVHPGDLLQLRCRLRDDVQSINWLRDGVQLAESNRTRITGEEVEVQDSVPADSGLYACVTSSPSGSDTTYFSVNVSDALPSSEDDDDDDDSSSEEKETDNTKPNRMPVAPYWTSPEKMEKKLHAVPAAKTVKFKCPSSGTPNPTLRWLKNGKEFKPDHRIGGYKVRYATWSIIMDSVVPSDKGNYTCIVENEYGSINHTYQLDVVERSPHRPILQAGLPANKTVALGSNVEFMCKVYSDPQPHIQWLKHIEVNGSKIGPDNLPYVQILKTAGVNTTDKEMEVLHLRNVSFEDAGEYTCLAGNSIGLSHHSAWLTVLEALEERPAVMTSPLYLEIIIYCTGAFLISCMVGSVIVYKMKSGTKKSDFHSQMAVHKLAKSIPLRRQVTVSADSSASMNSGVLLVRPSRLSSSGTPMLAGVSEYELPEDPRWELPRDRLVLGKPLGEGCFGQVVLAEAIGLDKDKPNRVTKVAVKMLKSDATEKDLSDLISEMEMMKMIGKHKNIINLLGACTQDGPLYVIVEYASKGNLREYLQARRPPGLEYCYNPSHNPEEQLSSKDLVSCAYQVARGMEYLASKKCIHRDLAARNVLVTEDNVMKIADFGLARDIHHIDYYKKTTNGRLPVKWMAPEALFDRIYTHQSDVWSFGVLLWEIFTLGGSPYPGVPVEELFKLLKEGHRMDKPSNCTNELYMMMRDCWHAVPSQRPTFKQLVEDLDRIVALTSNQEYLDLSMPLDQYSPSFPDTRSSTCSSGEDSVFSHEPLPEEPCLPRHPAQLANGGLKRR

Row | SMILES | IC50 [1] [nM] | IC50 [2] [nM]
1 | COCc1c(-c2cc3cc(C)cc(OC)c3s2)c2c(N)ncnn2c1C#N | 55.3 | 58.1
2 | COCc1c(CN2CCNC(=O)C2)c(-c2cc3cc(C)cc(OC)c3s2)c2c(N)ncnn12 | 3.9 | –
3 | COc1cc(C)cc2cc(-c3c(CNC(C)=O)c(CNC(C)=O)n4ncnc(N)c34)sc12 | 1.4 | 0.7
4 | CCOCc1c(-c2cc3cc(C)cc(OC)c3s2)c2c(N)ncnn2c1C#N | 39.1 | –
5 | CCOCc1c(CN2CCNC(=O)C2)c(-c2cc3cc(C)cc(OC)c3s2)c2c(N)ncnn12 | 8 | –
